Here are results for 16 compounds from ChEMBL document CHEMBL4033645, “Design, synthesis, and docking studies of quinazoline analogues bearing aryl semicarbazone scaffolds as potent EGFR inhibitors” (Bioorg Med Chem, 2017).

Common to all, as to assay type: functional, cell-based
One assay relates to PC-3. The assay can be described thus: Cytotoxicity against human PC3 cells assessed as decrease in cell viability after 72 hrs by MTT assay. As to conditions: Homo sapiens, PC-3, 72 h; read-out: IC50; call rule not given here.
For another assay, the system named is HepG2. In words: Cytotoxicity against human HepG2 cells assessed as decrease in cell viability after 72 hrs by MTT assay. As to conditions: Homo sapiens, HepG2, 72 h; read-out: IC50. Background: Formazan colour is commonly taken as a measure of viable cells.
The subject of another assay is A549. In words: Cytotoxicity against human A549 cells assessed as decrease in cell viability after 72 hrs by MTT assay. As to conditions: A549, 72 h.
The subject of the next assay is MCF7. In words: Cytotoxicity against human MCF7 cells assessed as decrease in cell viability after 72 hrs by MTT assay.
Setting [1] is: Homo sapiens, MCF7, 72 h, read-out: IC50.

As for `COc1cc2ncnc(Nc3ccc(F)c(Cl)c3)c2cc1NC(=O)N/N=C/c1cc(C(C)(C)C)c(O)c(C(C)(C)C)c1`, the IC50 (in general, the concentration at which inhibition is half-maximal) with PC-3 came to 28.7 µM; with HepG2 it was 26.8 µM; with A549, 37.1 µM; with MCF7 (setting [1]), 28.3 µM.
Regarding `O=C(N/N=C/c1ccc(F)cc1Cl)Nc1cc2c(Nc3ccc(F)c(Cl)c3)ncnc2cc1O[C@H]1CCOC1`, the IC50 was 28.4 µM in the assay with PC-3, 26.1 µM with HepG2, 27.2 µM with A549 and 32.2 µM in the assay on MCF7 (setting [1]).
Take `O=C(N/N=C/c1ccc(O)c(Br)c1)Nc1cc2c(Nc3ccc(F)c(Cl)c3)ncnc2cc1O[C@H]1CCOC1`: the 50% inhibitory concentration (IC50) amounted to 5.23 µM in the assay on PC-3, 0.66 µM in the assay with HepG2, 4.31 µM in the assay with A549 and 2.69 µM in the assay with MCF7 (setting [1]).
Take `O=C(N/N=C/c1ccc([N+](=O)[O-])cc1)Nc1cc2c(Nc3ccc(F)c(Cl)c3)ncnc2cc1O[C@H]1CCOC1`: the IC50 with PC-3 is 33.5 µM; with HepG2 it was 35.3 µM; in the assay with A549, 31.2 µM; with MCF7 (mcf7) it was “Not Active”.
`CN(C)C/C=C/C(=O)Nc1cc2c(Nc3ccc(F)c(Cl)c3)ncnc2cc1O[C@H]1CCOC1` [AFATINIB]: the figures for the IC50 in the assay on PC-3 and in the assay on A549 were 3.96 µM and 1.4 µM, respectively.
Turning to `O=C(N/N=C/c1cccc(Cl)c1Cl)Nc1cc2c(Nc3ccc(F)c(Cl)c3)ncnc2cc1O[C@H]1CCOC1`, the IC50 was 27.4 µM in the assay with PC-3, 16.9 µM in the assay on HepG2, 25 µM in the assay with A549 and “Not Active” in the assay with MCF7 (mcf7).
Turning to `O=C(N/N=C/c1ccc(O)cc1O)Nc1cc2c(Nc3ccc(F)c(Cl)c3)ncnc2cc1O[C@H]1CCOC1`, the IC50 with PC-3 was found to be 7.54 µM; in the assay on HepG2, 4.53 µM; in the assay with A549, 9.36 µM; in the assay with MCF7 (setting [1]) it was 5.35 µM.
Turning to `N#Cc1ccc(/C=N/NC(=O)Nc2cc3c(Nc4ccc(F)c(Cl)c4)ncnc3cc2O[C@H]2CCOC2)cc1`, the IC50 in the assay with PC-3 was determined as 28.1 µM; in the assay on HepG2, 26.4 µM; in the assay on A549 it was 29.1 µM.
As to `COc1cc2ncnc(Nc3ccc(F)c(Cl)c3)c2cc1NC(=O)N/N=C/c1ccc(O)c(Br)c1`, the IC50 in the assay on PC-3 is 15.3 µM; with HepG2, 23.8 µM; in the assay with A549, 28.6 µM; in the assay with MCF7 (mcf7) it was “Not Active”.
Turning to `CCN(CC)c1ccc(/C=N/NC(=O)Nc2cc3c(Nc4ccc(F)c(Cl)c4)ncnc3cc2O[C@H]2CCOC2)c(O)c1`, the IC50 with PC-3 worked out at 4.59 µM; in the assay with HepG2, 15.7 µM; with A549, 15.7 µM; in the assay on MCF7 (setting [1]), 15.6 µM.
For `COc1cc2ncnc(Nc3ccc(F)c(Cl)c3)c2cc1NC(=O)N/N=C/c1ccc([N+](=O)[O-])cc1`, the IC50 is 32.4 µM in the assay on PC-3, 34.1 µM in the assay on HepG2, 35.1 µM in the assay with A549 and 36.8 µM in the assay on MCF7 (setting [1]).
On to `COc1cc2ncnc(Nc3ccc(F)c(Cl)c3)c2cc1NC(=O)N/N=C/c1ccc(O)cc1`, for which the IC50 in the assay with PC-3 worked out at 16.6 µM; with HepG2, 26.3 µM; with A549, 7.61 µM; in the assay with MCF7 (setting [1]) it was 28.6 µM.
Consider `COc1cc2ncnc(Nc3ccc(F)c(Cl)c3)c2cc1NC(=O)N/N=C/c1cc(Br)c(O)c(Br)c1`, for which the IC50 in the assay on PC-3 is 41.5 µM; in the assay on HepG2, 36.8 µM; with A549 it was 34.6 µM; with MCF7 (setting [1]), 30.2 µM.
Take `COc1cc2ncnc(Nc3ccc(F)c(Cl)c3)c2cc1NC(=O)N/N=C/c1cccc(Cl)c1Cl`: the IC50 in the assay with PC-3 was determined as 24.4 µM; in the assay on HepG2, 26.1 µM; in the assay with A549 it was 35.3 µM; in the assay with MCF7 (setting [1]) it was 28.7 µM.
In the same order, the values of `COc1ccc(/C=N/NC(=O)Nc2cc3c(Nc4ccc(F)c(Cl)c4)ncnc3cc2O[C@H]2CCOC2)cc1` are 34.1 µM, 28.8 µM, 33.1 µM and 27.3 µM.
Take `COc1cc2ncnc(Nc3ccc(F)c(Cl)c3)c2cc1NC(=O)N/N=C/c1ccc(OC)c(OC)c1OC`: the IC50 in the assay on PC-3 is 29.3 µM; in the assay with HepG2, 31.2 µM; in the assay on A549 it was 32.8 µM; in the assay on MCF7 (mcf7) it was “Not Active”.
